Holding throughout (format): in vivo
Experiment [1] deals with cattle ticks (Boophilus microplus) Parkhurst strain, SP-resistant. Put plainly: Boophilus microplus dip test. Particulars: application rate 100 ppm, assessed after 7 days by laying of fertile eggs. As to the method: Boophilus microplus—Dip Test
Test animals: cattle ticks (Boophilus microplus) Parkhurst strain, SP-resistant
(§1) Solvent: dimethyl sulfoxide
10 mg of active ingredient are dissolved in 0.5 ml of dimethyl sulfoxide. To produce a suitable formulation, the active ingredient solution is diluted with water to the concentration desired in each case. This active ingredient formulation is pipetted into tubes. 8-10 engorged adult female cattle ticks (Boophilus microplus) are transferred into a further tube with holes. The tube is immersed into the active ingredient formulation, and all the ticks are completely wetted. After the liquid has run out, the ticks are transferred on filter discs into plastic dishes and stored in a climate-controlled room.
(§2) Efficacy is assessed after 7 days by laying of fertile eggs. Eggs which are not visibly fertile are stored in a climate-controlled cabinet until the larvae hatch after about 42 days. An efficacy of 100% means that none of the ticks has laid any fertile eggs; 0% means that all the eggs are fertile.

Experiment [2] has as its system Ctenocephalides felis. The experiment can be described thus: Ctenocephalides felis oral test. Particulars: application rate 100 ppm in citrated cattle blood, after 2 days. As to the method: Ctenocephalides felis—Oral Test
as §1
To produce a suitable active ingredient formulation, 10 mg of active ingredient are mixed with 0.5 ml of dimethyl sulfoxide. Dilution with citrated cattle blood gives the desired concentration.
About 20 unfed adult cat fleas (Ctenocephalides felis) are placed into a chamber which is closed at the top and bottom with gauze. A metal cylinder whose bottom end is closed with parafilm is placed onto the chamber. The cylinder contains the blood/active ingredient formulation, which can be imbibed by the fleas through the parafilm membrane.
After 2 days, the rate of extermination in % is determined. 100% means that all of the fleas have been killed; 0% means that none of the fleas have been killed.

In another experiment the test system is Rhipicephalus sanguineus. Put plainly: Rhipicephalus sanguineus in vitro contact test with adult brown dog ticks. Particulars: application rate 5 μg/cm^2 (=500 g/ha), after 48 h, adult dog ticks dead or moribund. On the procedure: Rhipicephalus sanguineus—In Vitro Contact Tests with Adult Brown Dog Ticks
(§3) For the coating of the test tubes, 9 mg of active ingredient are first dissolved in 1 ml of acetone p.a. and then diluted to the desired concentration with acetone p.a. 250 μl of the solution are distributed homogeneously on the inner walls and the base of a 25 ml glass tube by turning and rocking on an orbital shaker (rocking rotation at 30 rpm for 2 h). With 900 ppm of active ingredient solution and internal surface area 44.7 cm^2, given homogeneous distribution, an area-based dose of 5 μg/cm^2 is achieved.
After the solvent has evaporated off, the tubes are populated with 5-10 adult dog ticks (Rhipicephalus sanguineus), sealed with a perforated plastic lid and incubated in a horizontal position in the dark at room temperature and ambient humidity. After 48 h, efficacy is determined. To this end, the ticks are knocked to the base of the tube and incubated on a hotplate at 45-50° C. for not more than 5 min. Ticks which remain motionless on the base or move in such an uncoordinated manner that they are unable to deliberately avoid the heat by climbing upwards are considered to be dead or moribund.
An efficacy of 100% means that all the ticks were dead or moribund. 0% efficacy means that none of the ticks were harmed.

The test system of a further experiment is Spodoptera frugiperda. Put plainly: Spodoptera frugiperda spray test (SPODFR). The following applies: application rate 100 g/ha, spray, after 7 days; for pest or weed control at 100 g/ha: Spodoptera frugiperda, 168 h, read-out: efficacy. As to the method:
Spodoptera frugiperda—Spray Test
(§4) To produce a suitable active ingredient formulation, 1 part by weight of active ingredient is dissolved with the specified parts by weight of solvent and made up to the desired concentration with water containing an emulsifier concentration of 1000 ppm. To produce further test concentrations, the formulation is diluted with emulsifier-containing water.
Leaf discs of maize (Zea mays) are sprayed with an active ingredient formulation of the desired concentration and, after drying, populated with caterpillars of the armyworm (Spodoptera frugiperda).
After 7 days, the efficacy in % is determined. 100% means that all the caterpillars have been killed; 0% means that no caterpillar has been killed.
Spodoptera frugiperda—Spray Test (SPODFR)
(§5) To produce a suitable active compound formulation, 1 part by weight of active compound is dissolved with the specified parts by weight of solvent and made up to the desired concentration with water containing an emulsifier concentration of 1000 ppm. To produce further test concentrations, the formulation is diluted with emulsifier-containing water.
Leaf discs of maize (Zea mays) are sprayed with an active compound formulation of the desired concentration and, after drying, populated with caterpillars of the armyworm (Spodoptera frugiperda).
After the desired time, the efficacy in % is determined. 100% means that all the caterpillars have been killed; 0% means that no caterpillar has been killed.

In a further experiment the test system is Boophilus microplus. The experiment can be described thus: Boophilus microplus injection test. The following applies: application rate 20 μg/animal, assessed after 7 days by laying of fertile eggs. As to the method: Boophilus microplus—Injection Test
as §1
To produce a suitable active compound preparation, 10 mg of active compound are mixed with 0.5 ml of solvent and the concentrate is diluted to the desired concentration with solvent.
1 μl of the active ingredient solution is injected into the abdomen of 5 engorged adult female cattle ticks (Boophilus microplus). The animals are transferred into dishes and kept in a climate-controlled room.
as §2

A further experiment has as its system Lucilia cuprina. The experiment can be described thus: Lucilia cuprina test. The following applies: application rate 100 ppm, L1 larvae, after 2 days. On the procedure: as §1
(§6) To produce a suitable active ingredient formulation, 10 mg of active ingredient are mixed with 0.5 ml of dimethyl sulfoxide, and the concentrate is diluted with water to the desired concentration.
About 20 L1 larvae of the Australian sheep blowfly (Lucilia cuprina) are transferred into a test vessel containing minced horsemeat and the active compound preparation of the desired concentration.
After 2 days, the rate of extermination in % is determined. 100% means that all the larvae have been killed; 0% means that no larvae have been killed.

Experiment [3] deals with Myzus persicae. Put plainly: Myzus persicae spray test (MYZUPE). Particulars: application rate 100 g/ha, spray, after 5 days. On the procedure:
Myzus persicae—Spray Test
as §4
Discs of Chinese cabbage leaves (Brassica pekinensis) infested by all stages of the green peach aphid (Myzus persicae) are sprayed with an active compound preparation of the desired concentration.
(§7) After 5 days, the efficacy in % is determined. 100% means that all the aphids have been killed; 0% means that no aphids have been killed.
Myzus Persicae—Spray Test (MYZUPE)
as §5
Discs of Chinese cabbage leaves (Brassica pekinensis) infested with all stages of the green peach aphid (Myzus persicae) are sprayed with an active compound formulation of the desired concentration.
After the desired time, the efficacy in % is determined. 100% means that all the aphids have been killed; 0% means that no aphids have been killed.

The next experiment concerns Musca domestica. Put plainly: Musca domestica test. The following applies: application rate 100 ppm, adult houseflies, after 2 days. As to the method:
as §1, §6
Vessels containing a sponge treated with sugar solution and the active ingredient formulation of the desired concentration are populated with 10 adult houseflies (Musca domestica).
After 2 days, the rate of extermination in % is determined. 100% means that all of the flies have been killed; 0% means that none of the flies have been killed.

Another experiment has as its system Tetranychus urticae. Put plainly: Tetranychus urticae spray test, OP-resistant (TETRUR). Particulars: spray, after 6 days. As to the method:
Tetranychus urticae—Spray Test, OP-Resistant
as §4
Discs of bean leaves (Phaseolus vulgaris) infested with all stages of the greenhouse red spider mite (Tetranychus urticae) are sprayed with an active compound preparation of the desired concentration.
After 6 days, the efficacy in % is determined. 100% means that all the spider mites have been killed; 0% means that no spider mites have been killed.
Tetranychus urticae—Spray Test; OP-Resistant (TETRUR)
as §5
Discs of bean leaves (Phaseolus vulgaris) infested with all stages of the greenhouse red spider mite (Tetranychus urticae) are sprayed with an active compound formulation of the desired concentration.
After the desired time, the efficacy in % is determined. 100% means that all the spider mites have been killed; 0% means that no spider mites have been killed.

A further experiment has as its system Phaedon cochleariae. The experiment can be described thus: Phaedon cochleariae spray test (PHAECO). Particulars: application rate 100 g/ha, spray, after 7 days; for pest or weed control at 100 g/ha: Phaedon cochleariae, 168 h, read-out: efficacy. As to the method:
Phaedon cochleariae—Spray Test
as §4
After 7 days, the efficacy in % is determined. 100% means that all the beetle larvae have been killed; 0% means that no beetle larvae have been killed.
Phaedon cochleariae—Spray Test (PHAECO)
as §5
Discs of Chinese cabbage leaves (Brassica pekinensis) are sprayed with an active compound formulation of the desired concentration and, after drying, populated with larvae of the mustard beetle (Phaedon cochleariae).
After the desired time, the efficacy in % is determined. 100% means that all the beetle larvae have been killed; 0% means that no beetle larvae have been killed.

For experiment [4], the system named is Anopheles gambiae strain RSPH (homozygot kdr). The experiment can be described thus: Anopheles test (ANPHGB surface treatment). The following applies: application rate 100 mg/m^2, glazed tile, exposure 30 minutes, 24 hours after contact, read-out: efficacy (mortality). As to the method:
Anopheles Test (ANPHGB Surface Treatment)
Solvent: acetone+2000 ppm rapeseed oil methyl ester (RME)
To produce a suitable active compound formulation, the active compound is dissolved in the solvent (2 mg/ml). The active compound formulation is pipetted onto a glazed tile and, after it has dried off, adult mosquitoes of the species Anopheles gambiae strain RSPH (homozygot kdr) are placed onto the treated tile. The exposure time is 30 minutes.
24 hours after contact with the treated surface, mortality in % is determined. 100% means that all mosquitoes have been killed; 0% means that none of the mosquitoes have been killed.

Experiment [5] concerns Myzus persicae. The experiment can be described thus: Myzus persicae oral test. The following applies: application rate 4 ppm, after 5 days. On the procedure: To produce a suitable active compound preparation, 1 part by weight of active compound is dissolved with the specified amounts by weight of solvent and made up to the desired concentration with water.
50 ul of the active compound preparation are transferred to microtiter plates and made up to a final volume of 200 μl with 150 μl of IPL41 insect medium (33%+15% sugar). Then the plates are sealed with parafilm through which a mixed population of the green peach aphid (Myzus persicae), which is located in a second microtiter plate, can pierce and absorb the solution.
as §7

The test system of experiment [6] is Ctenocephalides felis. The experiment can be described thus: Ctenocephalides felis in vitro contact test with adult cat fleas. The following applies: application rate 5 μg/cm^2 (=500 g/ha), after 48 h, adult cat fleas dead or moribund. On the procedure: Ctenocephalides felis—In Vitro Contact Tests with Adult Cat Fleas
as §3
After the solvent has evaporated off, the tubes are populated with 5-10 adult cat fleas (Ctenocephalides felis), sealed with a perforated plastic lid and incubated in a horizontal position at room temperature and ambient humidity. After 48 h, efficacy is determined. To this end, the tubes are stood upright and the fleas are knocked to the base of the tube. Fleas which remain motionless at the base or move in an uncoordinated manner are considered to be dead or moribund.
100% efficacy means that all the fleas were dead or moribund. 0% efficacy means that no fleas were harmed.

Turning to `N#CC1(NC(=O)c2cc(-c3cnn(-c4c(Cl)cc(C(F)(C(F)(F)F)C(F)(F)F)cc4Cl)c3)sc2Br)CC1` [I-T1-2], the efficacy in experiment [1] is listed as 100%; in the experiment on Rhipicephalus sanguineus it was 100%; in the experiment with Spodoptera frugiperda it was 100%; in the experiment with Boophilus microplus, 100%; with Myzus persicae [3], 100%; in the experiment on Tetranychus urticae (application rate 20 g/ha) it was 90%. Moreover, the efficacy with Phaedon cochleariae is given as 100%. Besides, the “efficacy (rate of extermination)” value in the experiment with Ctenocephalides felis [2], in the experiment with Lucilia cuprina and with Musca domestica was 100% in each case.
By mortality is commonly meant the percentage killed. On to `Cn1cc(-c2cnn(-c3c(Cl)cc(C(F)(C(F)(F)F)C(F)(F)F)cc3Cl)c2)cc1C(=O)NC1CC1` [I-T1-3, N-cyclopropyl-4-{1-[2,6-dichloro-4-(1,1,1,2,3,3,3-heptafluoropropan-2-yl)phenyl]-1H-pyrazol-4-yl}-1-methyl-1H-pyrrole-2-carboxamide], for which the “efficacy (rate of extermination)” value in the experiment with Ctenocephalides felis [2] and with Lucilia cuprina was 100% throughout. In addition, the efficacy in the experiment with Rhipicephalus sanguineus and in the experiment with Boophilus microplus was 100% each time. Also, the mortality at 100 mg/m2 in experiment [4] was 80 to 100%. Also, the pest or weed control at 100 g/ha with Spodoptera frugiperda and with Phaedon cochleariae was 100% in each case.
In the case of `Cc1sc(-c2cnn(-c3c(Cl)cc(C(F)(C(F)(F)F)C(F)(F)F)cc3Cl)c2)cc1C(=O)NC1(C#N)CC1` [I-T1-10], the “efficacy (rate of extermination)” value with Ctenocephalides felis [2], in the experiment on Lucilia cuprina and with Musca domestica was 100% each time. For the same compound, the efficacy in the experiment on Spodoptera frugiperda, in the experiment on Boophilus microplus, in the experiment on Myzus persicae [5], in the experiment with Tetranychus urticae (application rate 20 g/ha), with Tetranychus urticae (application rate 100 g/ha) and in the experiment on Phaedon cochleariae was 100% each time.
For `O=C(NC1CC1)c1csc(-c2cnn(-c3c(Cl)cc(C(F)(C(F)(F)F)C(F)(F)F)cc3Cl)c2)c1` [I-T1-12, N-cyclopropyl-5-{1-[2,6-dichloro-4-(1,1,1,2,3,3,3-heptafluoropropan-2-yl)phenyl]-1H-pyrazol-4-yl}thiophene-3-carboxamide], the efficacy in the experiment on Ctenocephalides felis [6], in the experiment on Rhipicephalus sanguineus and in the experiment on Myzus persicae [5] was 100% each time. Besides, the “efficacy (rate of extermination)” value in the experiment with Ctenocephalides felis [2], with Lucilia cuprina and in the experiment on Musca domestica was 100% each time. Further, the pest or weed control at 100 g/ha with Spodoptera frugiperda and in the experiment with Phaedon cochleariae was 100% throughout.
As to `O=C(NC1CC1)c1cc(-c2cnn(-c3c(Cl)cc(C(F)(C(F)(F)F)C(F)(F)F)cc3Cl)c2)sc1Cl` [I-T1-16, 2-chloro-N-cyclopropyl-5-{1-[2,6-dichloro-4-(1,1,1,2,3,3,3-heptafluoropropan-2-yl)phenyl]-1H-pyrazol-4-yl}thiophene-3-carboxamide], the pest or weed control at 100 g/ha in the experiment with Spodoptera frugiperda and in the experiment on Phaedon cochleariae was 100% throughout. Also, the efficacy with Myzus persicae [3] worked out at 100%; in the experiment on Myzus persicae [5] it was 100%; in the experiment with Tetranychus urticae (application rate 20 g/ha), 90%; in the experiment with Tetranychus urticae (application rate 100 g/ha) it was 100%.

For the origin of these results see US11825838B2, “Tricyclic carboxamides for controlling arthropods” (Bayer CropScience Aktiengesellschaft, priority 2017, dated 2023).
